≈ marks a conversion by molar mass, not a printed value. Where “and” joins values, the source holds several entries; their conditions need not be identical. Equal values may be shown once.
How the values were obtained:
[1] = test system: Escherichia coli; experiment: Tested for antibacterial activity as minimum inhibitory concentration against Escherichia coli KL-16 in the absence of polymyxin B nonapeptide (PBMN) at 0 ug/mL; format: functional
[2] = test system: Escherichia coli; experiment: Tested for antibacterial activity as minimum inhibitory concentration against Escherichia coli KL-16 in the presence of polymyxin B nonapeptide (PBMN) at 1 ug/mL; format: functional
[3] = test system: Escherichia coli; experiment: Tested for antibacterial activity as minimum inhibitory concentration against Escherichia coli-ss in the absence of polymyxin B nonapeptide (PBMN) at 0 ug/mL; format: functional
[4] = test system: Escherichia coli; experiment: Tested for antibacterial activity as minimum inhibitory concentration against Escherichia coli-ss in the presence of polymyxin B nonapeptide (PBMN) at 1 ug/mL; format: functional
[5] = test system: Stenotrophomonas maltophilia; experiment: Tested for antibacterial activity as minimum inhibitory concentration against Pseudomonas maltophilia 1057 in the presence of polymyxin B nonapeptide (PBMN) at 0 ug/mL; format: functional
[6] = test system: Stenotrophomonas maltophilia; experiment: Tested for antibacterial activity as minimum inhibitory concentration against Pseudomonas maltophilia 1057 in the presence of polymyxin B nonapeptide (PBMN) at 1 ug/mL; format: functional
[7] = test system: Salmonella typhimurium; experiment: Tested for antibacterial activity as minimum inhibitory concentration against Salmonella Typhimurium 701 in the absence of polymyxin B nonapeptide (PBMN) at 0 ug/mL; format: functional, Salmonella enterica subsp. enterica serovar Typhimurium; conditions: Salmonella enterica
[8] = test system: Staphylococcus epidermidis; experiment: Tested for antibacterial activity as minimum inhibitory concentration against Staphylococcus epidermidis strain OC2603; format: functional
[9] = test system: Staphylococcus aureus; experiment: Tested for antibacterial activity as minimum inhibitory concentration against Staphylococcus aureus strain OC6538; format: functional
[10] = test system: Salmonella typhimurium; experiment: Tested for antibacterial activity as minimum inhibitory concentration against Salmonella Typhimurium 701 in the presence of polymyxin B nonapeptide (PBMN) at 1 ug/mL; format: functional, Salmonella enterica subsp. enterica serovar Typhimurium
[11] = molecular target: DNA gyrase (Escherichia coli, UniProt P0AES4+P0AES6); experiment: In vitro antibacterial activity was determined as inhibitory concentration causing 50% DNA-gyrase supercoiling inhibition (SCI); format: protein-complex assay
[12] = Escherichia coli, read-out: MIC
[13] = Staphylococcus aureus, read-out: MIC
[14] = Salmonella enterica, read-out: MIC

| SMILES | MIC [1] [µg/mL] | MIC [2] [µg/mL] | MIC [3, 12] [µg/mL] | MIC [4, 12] [µg/mL] | MIC [5] [µg/mL] | MIC [6] [µg/mL] | MIC [7] [µg/mL] | MIC [8] [µg/mL] | MIC [9, 13] [µg/mL] | MIC [10, 14] [µg/mL] | IC50 [11] | MIC [3] [µg/mL] | MIC [4] [µg/mL] | MIC [9] [µg/mL] | MIC [10] | MIC ([10]; Salmonella enterica) [µg/mL] |
| --- | --- | --- | --- | --- | --- | --- | --- | --- | --- | --- | --- | --- | --- | --- | --- | --- |
| CC1COc2c(N3CCN(C)CC3)c(F)cc3c(=O)c(C(=O)O)cn1c23 (stereo not given) [OFLOXACIN] | 0.0625 (≈ 0.173 µM) | < 0.015 | < 0.5 | < 0.5 | 2 | 1 | 0.125 (≈ 0.346 µM) | ≤ 0.5 | ≤ 0.5 | 0.0625 |  |  |  |  |  |  |
| CCn1cc(C(=O)O)c(=O)c2ccc(C)nc21 [NALIDIXIC ACID] | 2 (≈ 8.61 µM) | 0.5 | 0.5 (≈ 2.15 µM) | 0.125 | 62.5 | 15.6 | 3.9 (≈ 16.8 µM) | 250 (≈ 1080 µM) | 500 (≈ 2150 µM) | 2 |  |  |  |  |  |  |
| COc1cc(-c2oc3cc(O)cc(O)c3c(=O)c2O)cc(OC)c1OC | > 125 | > 125 | > 125 | > 125 | > 125 | > 125 | > 125 | > 125 | > 125 | > 125 | > 1390 µM |  |  |  |  |  |
| O=c1c(O)c(-c2cc(O)cc(O)c2)oc2cc(O)cc(O)c12 | > 125 | 31.2 | 125 (≈ 414 µM) | 3.9 | > 125 | > 125 | > 125 | 500 (≈ 1650 µM) | 500 (≈ 1650 µM) | 7.8 | 1380 µM |  |  |  |  |  |
| O=c1cc(-c2ccc(O)cc2)oc2cc(O)cc(O)c12 [APIGENIN] | > 125 | > 125 | > 125 | 7.8 | > 125 | > 125 | > 125 | > 125 | > 125 | 15.6 | 250 µM |  |  |  |  |  |
| O=c1c(O)c(-c2ccccc2)oc2ccccc12 [FLAVONOL] | > 125 | > 125 | > 125 | > 125 | > 125 | > 125 | > 125 | > 125 | > 125 | > 125 | > 2100 µM |  |  |  |  |  |
| O=c1cc(-c2ccccc2)oc2cc(O)cc(O)c12 [CHRYSIN] | > 125 | > 125 | > 125 | > 125 | > 125 | > 125 | > 125 | > 125 | > 125 | > 125 | > 1970 µM |  |  |  |  |  |
| O=c1c(O)c(-c2cc(O)c(O)c(O)c2)oc2cc(O)cc(O)c12 [MYRICETIN] | > 125 | 15.6 | 62.5 (≈ 196 µM) | 3.9 | > 125 | 125 | > 125 | 62.5 (≈ 196 µM) | 125 (≈ 393 µM) | 15.6 | 707 µM |  |  |  |  |  |
| O=c1oc2c(O)c(O)cc3c(=O)oc4c(O)c(O)cc1c4c23 [ELLAGIC ACID] | > 125 | 7.8 | > 125 | 2 | > 125 | > 125 | > 125 | > 125 | > 125 | 31.2 | 10.9 µM |  |  |  |  |  |
| O=c1c(O)c(-c2ccc(O)c(O)c2)oc2cc(O)ccc12 [FISETIN] | > 125 | 15.6 | 62.5 (≈ 218 µM) | 3.9 | > 125 | > 125 | > 125 | > 125 | > 125 | 31.2 | 291 µM |  |  |  |  |  |
| O=c1c(O)c(-c2ccc(O)c(O)c2)oc2cc(O)cc(O)c12 [QUERCETIN] | > 125 |  | 62.5 (≈ 207 µM) | 2 | > 125 | > 125 | > 125 |  | 62.5 (≈ 207 µM) |  | 182 µM and 156 µM | 31.25 (≈ 103 µM) | 1 | >125 | 15.6 µg/mL and 31.25 µg/mL |  |
| COc1cc2oc(-c3ccccc3)cc(=O)c2c(O)c1O | > 125 | > 125 | > 125 | > 125 | > 125 | > 125 | > 125 | > 125 | > 125 | > 125 | > 1760 µM |  |  |  |  |  |
| COc1ccc(-c2oc3cc(O)cc(O)c3c(=O)c2O)cc1 [KAEMPFERIDE] | > 125 | > 125 | > 125 | > 125 | > 125 | > 125 | > 125 | > 125 | > 125 | > 125 | > 1670 µM |  |  |  |  |  |
| O=c1c(O)c(-c2ccccc2)oc2cc(O)cc(O)c12 [GALANGIN] | > 125 | > 125 | > 125 | > 125 | > 125 | > 125 | > 125 | > 125 | > 125 | > 125 | > 1850 µM |  |  |  |  |  |
| O=c1cc(-c2ccccc2)oc2c(O)c(O)ccc12 [7,8-DIHYDROXYFLAVONE] | > 125 | 62.5 | 125 (≈ 492 µM) | 7.8 | > 125 | 125 | > 125 | 31.2 (≈ 123 µM) |  |  | 351 µM |  |  | 62.5 (≈ 246 µM) |  | 15.6 |
| COc1cccc(-c2cc(=O)c3c(O)cc(O)cc3o2)c1 | > 125 | > 125 | > 125 | > 125 | > 125 | > 125 | > 125 | > 125 | > 125 | > 125 | > 1760 µM |  |  |  |  |  |
